Experimental data published in the supplement of paper PMC11061612.

Legend:
Assay in all cases: combination Emax (second highest fraction inhibited in the dose matrix, 72 h); higher = more inhibition; extreme values may be limits of the assay
[1] = tested on: CW-2 (Colorectal Carcinoma)
Method in brief: (§1)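 Cell lines grown in DMEM/F12 or RPMI with 10% FBS were plated in 1536-well plates and held 24 hours at 37°C, 5% CO2 before 72 hours of exposure to two-drug dose matrices, with DMSO typically at 0.2%. CellTiter-Glo 2.0 luminescence gave viability, which was converted to inhibition. Vehicle wells were set to 0 and blank wells to 1. Combination Emax is the second-highest inhibition in the matrix, and Bliss excess is the observed combination effect minus the expected EA + EB − EA·EB, where EA and EB are the single-agent effects.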

[2] = tested on: DAN-G (Pancreatic Carcinoma)
Method in brief: as §1

[3] = tested on: ESO51 (Esophageal Adenocarcinoma)
Method in brief: as §1

[4] = tested on: H9 (T-Cell Non-Hodgkin's Lymphoma)
Method in brief: as §1

[5] = tested on: HCC1419 (Breast Carcinoma)
Method in brief: as §1

[6] = tested on: KMS-12-BM (Plasma Cell Myeloma)
Method in brief: as §1

[7] = tested on: KP-3 (Pancreatic Carcinoma)
Method in brief: as §1

[8] = tested on: KU812 (Chronic Myelogenous Leukemia)
Method in brief: as §1

[9] = tested on: KY821 (Acute Myeloid Leukemia)
Method in brief: as §1

[10] = tested on: KYSE-270 (Esophageal Squamous Cell Carcinoma)
Method in brief: as §1

[11] = tested on: MOG-G-CCM (Low Grade Glioma)
Method in brief: as §1

[12] = tested on: NCCIT (Other Solid Carcinomas)
Method in brief: as §1

[13] = tested on: NCI-H3122 (Lung Adenocarcinoma)
Method in brief: as §1

[14] = tested on: NCI-H661 (Non-Small Cell Lung Carcinoma)
Method in brief: as §1

RD (Rhabdomyosarcoma) = tested on: RD (Rhabdomyosarcoma)
Method in brief: as §1

[15] = tested on: RPMI-8226 (Plasma Cell Myeloma)
Method in brief: as §1

[16] = tested on: SK-GT-4 (Esophageal Adenocarcinoma)
Method in brief: as §1

[17] = tested on: SNU-398 (Hepatocellular Carcinoma)
Method in brief: as §1

[18] = tested on: SU-DHL-5 (B-Cell Non-Hodgkin's Lymphoma)
Method in brief: as §1

[19] = tested on: SUP-B15 (B-Lymphoblastic Leukemia)
Method in brief: as §1

| Compound | combination Emax [1] | combination Emax [2] | combination Emax [3] | combination Emax [4] | combination Emax [5] | combination Emax [6] | combination Emax [7] | combination Emax [8] | combination Emax [9] | combination Emax [10] | combination Emax [11] | combination Emax [12] | combination Emax [13] | combination Emax [14] | combination Emax (RD (Rhabdomyosarcoma)) | combination Emax [15] | combination Emax [16] | combination Emax [17] | combination Emax [18] | combination Emax [19] |
| --- | --- | --- | --- | --- | --- | --- | --- | --- | --- | --- | --- | --- | --- | --- | --- | --- | --- | --- | --- | --- |
| Cc1cc2ncnn2cc1Nc1ncc2c(n1)n(C1CCOCC1)c(=O)n2C [AZD7648] + O=C(c1cc(Cc2n[nH]c(=O)c3ccccc23)ccc1F)N1CCN(C(=O)C2CC2)CC1 [Olaparib] (first compound max 10 µM, 7x7, partner max 10 µM) | 0.0683 | 0.531 | 0.224 | 0.22 | 0.174 | 0.429 | 0.0579 | 0.393 | 0.355 | 0.212 | 0.236 | 0.192 | 0.281 | 0.215 | 0.161 | 0.464 | 0.26 | 0.134 | 0.96 | 0.917 |
| CN(CCO)CC[C@H](CSc1ccccc1)Nc1ccc(S(=O)(=O)NC(=O)c2ccc(N3CCC([C@@H](O)c4ccccc4-c4ccc(Cl)cc4)CC3)cc2)cc1S(=O)(=O)C(F)(F)F [AZD4320] + CN(C)CCCOc1ccc(-c2ccc3ncc4c(c3c2)n(C2CCOCC2)c(=O)n4C)cn1 [AZD0156] (first compound max 1 µM, 7x7, partner max 1 µM) | 0.136 | 0.346 | 0.193 | 0.996 | 0.245 | 1 | 0.0528 | 0.751 | 1 | 0.0949 | 0.474 | 0.174 | 0.209 | 0.0831 | 0.632 | 0.949 | 0.188 | 0.191 | 0.512 | 1 |
| CN(CCO)CC[C@H](CSc1ccccc1)Nc1ccc(S(=O)(=O)NC(=O)c2ccc(N3CCC([C@@H](O)c4ccccc4-c4ccc(Cl)cc4)CC3)cc2)cc1S(=O)(=O)C(F)(F)F [AZD4320] + Cc1cc2ncnn2cc1Nc1ncc2c(n1)n(C1CCOCC1)c(=O)n2C [AZD7648] (first compound max 1 µM, 7x7, partner max 10 µM) | 0.154 | 0.474 | 0.149 | 0.99 | 0.278 | 1 | 0.0376 | 0.872 | 1 | 0.0273 | 0.558 | 0.243 | 0.305 | 0.0745 | 0.61 | 0.965 | 0.321 | 0.261 | 0.797 | 1 |
| CN(C)CCCOc1ccc(-c2ccc3ncc4c(c3c2)n(C2CCOCC2)c(=O)n4C)cn1 [AZD0156] + O=C(c1cc(Cc2n[nH]c(=O)c3ccccc23)ccc1F)N1CCN(C(=O)C2CC2)CC1 [Olaparib] (first compound max 3 µM, partner max 3 µM) | 0.177 | 0.576 | 0.348 | 0.445 | 0.187 | 0.438 | 0.0919 | 0.64 | 0.4 | 0.343 | 0.289 | 0.194 | 0.251 | 0.217 | 0.238 | 0.421 | 0.37 | 0.387 | 0.794 | 0.675 |
| CCN(CCO)CCCOc1ccc2c(Nc3cc(CC(=O)Nc4cccc(F)c4)[nH]n3)ncnc2c1 [AZD2811] + C=CCn1c(=O)c2cnc(Nc3ccc(N4CCN(C)CC4)cc3)nc2n1-c1cccc(C(C)(C)O)n1 [AZD1775] (first compound max 1 µM, partner max 1 µM) | 0.274 | 0.623 | 0.627 | 0.985 | 0.0861 | 0.944 | 0.209 | 0.725 | 1 | 0.63 | 0.377 | 0.781 | 0.627 | 0.543 | 0.347 | 0.562 | 0.363 | 0.417 | 1 | 0.966 |
| CN(CCO)CC[C@H](CSc1ccccc1)Nc1ccc(S(=O)(=O)NC(=O)c2ccc(N3CCC([C@@H](O)c4ccccc4-c4ccc(Cl)cc4)CC3)cc2)cc1S(=O)(=O)C(F)(F)F [AZD4320] + CCN(CCO)CCCOc1ccc2c(Nc3cc(CC(=O)Nc4cccc(F)c4)[nH]n3)ncnc2c1 [AZD2811] (first compound max 1 µM, 7x7, partner max 1 µM) | 0.12 | 0.355 | 0.233 | 0.978 | 0.0755 | 1 | 0.0781 | 0.885 | 1 | 0.113 | 0.773 | 0.181 | 0.269 | 0.0831 | 0.856 | 0.986 | 0.238 | 0.593 | 0.755 | 1 |
| Cc1cc2ncnn2cc1Nc1ncc2c(n1)n(C1CCOCC1)c(=O)n2C [AZD7648] + CCN(CCO)CCCOc1ccc2c(Nc3cc(CC(=O)Nc4cccc(F)c4)[nH]n3)ncnc2c1 [AZD2811] (first compound max 10 µM, 7x7, partner max 1 µM) | 0.164 | 0.554 | 0.227 | 0.722 | 0.285 | 0.574 | 0.237 | 0.66 | 0.495 | 0.183 | 0.445 | 0.334 | 0.548 | 0.308 | 0.214 | 0.392 | 0.389 | 0.363 | 0.993 | 0.875 |
| COc1nnc2ccc(N3CCC(c4ccc(OCCN5CCN(C)C(=O)[C@H]5C)cc4)CC3)nn12 [AZD5153] + Cn1cnc2c(F)c(Nc3ccc(Br)cc3Cl)c(C(=O)NOCCO)cc21 [Selumetinib] (first compound max 1 µM, 7x7, partner max 10 µM) | 0.565 | 0.527 | 0.901 | 1 | 0.355 | 1 | 0.338 | 0.994 | 1 | 0.58 | 0.548 | 0.786 | 0.68 | 0.305 | 0.77 | 0.913 | 0.651 | 0.556 | 1 | 1 |
| Cn1cnc2c(F)c(Nc3ccc(Br)cc3Cl)c(C(=O)NOCCO)cc21 [Selumetinib] + CCN(CCO)CCCOc1ccc2c(Nc3cc(CC(=O)Nc4cccc(F)c4)[nH]n3)ncnc2c1 [AZD2811] (first compound max 10 µM, 7x7, partner max 1 µM) | 0.349 | 0.519 | 0.454 | 1 | 0.113 | 0.397 | 0.202 | 0.951 | 0.843 | 0.295 | 0.457 | 0.109 | 0.653 | 0.0527 | 0.297 | 0.446 | 0.533 | 0.662 | 0.915 | 1 |
| Cc1c2c(nn1C)CSCc1cc(n(C)n1)CSc1cc(c3ccccc3c1)OCCCc1c(C(=O)O)n(C)c3c-2c(Cl)ccc13 [AZD5991] + CCN(CCO)CCCOc1ccc2c(Nc3cc(CC(=O)Nc4cccc(F)c4)[nH]n3)ncnc2c1 [AZD2811] (first compound max 1 µM, 7x7, partner max 1 µM) | 0.158 | 0.702 | 0.195 | 0.959 | 0.308 | 1 | 0.186 | 0.851 | 1 | 0.926 | 0.41 | 0.674 | 0.918 | 0.686 | 0.546 | 0.965 | 0.26 | 0.991 | 1 | 1 |
| CC1(C)CCC(CN2CCN(c3ccc(C(=O)NS(=O)(=O)c4ccc(NCC5CCOCC5)c([N+](=O)[O-])c4)c(Oc4cnc5[nH]ccc5c4)c3)CC2)=C(c2ccc(Cl)cc2)C1 [Venetoclax] + C[C@@H]1COCCN1C2=NC(=NC(=C2)C3(CC3)[S@](=N)(=O)C)C4=C5C=CNC5=NC=C4 [AZD6738] (first compound max 1 µM, 7x7, partner max 10 µM) | 0.403 | 0.719 | 0.82 | 1 | 0.343 | 1 | 0.323 | 0.83 | 1 | 0.869 | 0.538 | 0.607 | 0.652 | 0.654 | 0.372 | 0.962 | 0.589 | 0.673 | 1 | 1 |
| Cn1cnc2c(F)c(Nc3ccc(Br)cc3Cl)c(C(=O)NOCCO)cc21 [Selumetinib] + C[C@@H]1COCCN1C2=NC(=NC(=C2)C3(CC3)[S@](=N)(=O)C)C4=C5C=CNC5=NC=C4 [AZD6738] (first compound max 10 µM, 7x7, partner max 10 µM) | 0.501 | 0.675 | 0.857 | 1 | 0.174 | 0.865 | 0.156 | 0.969 | 0.944 | 0.524 | 0.502 | 0.649 | 0.734 | 0.396 | 0.522 | 0.871 | 0.616 | 0.742 | 1 | 0.986 |
